Experimental data published in paper PMC5374710, “Discovery of the first dual GSK3β inhibitor/Nrf2 inducer. A new multitarget therapeutic strategy for Alzheimer’s disease” (Scientific Reports, 2017).
Where two headings read alike, the source gives them in different places.

What was measured:
[1] = test system: Nrf2; assay: Nrf2-dependent luciferase reporter assay in AREc32 cell line; format: cell-based; conditions: AREc32 cells; for EC50: Arec32, 24 h, read-out: CD (concentration required to double the luciferase reporter activity); for Nrf2 induction (luciferase activity), result in words: 24 h, compound 7 also at 60 and 100 μM
Protocol: Thereafter, we tested the ability of the compounds to induce the Nrf2 transcription factor. We used an Nrf2-dependent luciferase reporter assay in the AREc32 cell line[45]. Cells were cultured for 24 h and then treated with increasing concentrations of compounds 5a–t (0.3, 3, 10 and 30 μM), including the known inducer sulforaphane, containing an isothiocyanate motive as positive control.
AREc32 cells were plated in 96-well white plates (2 × 10^4 cells/well). After 24 h, cells were incubated with increasing concentrations of each compound in duplicate for 24 h. AREc32 cells express constitutively the plasmid pGL-8xARE that implements 8 copies of the EpRE sequences followed by luciferase reporter gen. Therefore, Nrf2 induction is related to the activation of EpRE sequences, expressing luciferase at the same extent as EpRE sequences are activated. The Luciferase Assay System (Promega E1500), was used according to provider protocol and luminescence was quantified in an Orion II microplate luminometer (Berthold, Germany). Fold induction of luciferase activity was normalized to basal conditions. Data are expressed as CD values, expressing the concentration required to double the luciferase activity. CD values are calculated from dose-response curves generated from fold induction of control conditions vs. inducer concentration and fitted by non-linear regression and data interpolated to 2-fold induction concentration.
Breast cancer cells stably transfected to express luciferase after EpRE sequences MCF-7/AREc32 named AREc32, were kindly provided by Dr. C. Roland Wolf (University of Dundee, UK).^14 AREc32 cells were maintained in DMEM with high glucose-glutamax, supplemented with 10 % FBS, 1 % penicillin-streptomycin (10,000 units), and geneticin (0.8 mg/ml G418) at 37 °C and in a 5 % CO2- air atmosphere.^14
AREc32 cells are constitutively transfected with the pGL-8xARE luciferase reporter gene, inserted after EpRE sequences. Thus, Nrf2 translocation to the nucleus induces the activation of the EpRE sequences, expressing their target phase II antioxidant genes, and expressing luciferase at the same extent.^15 AREc32 cells were plated in 96-well white plates (2X10^4 cells/well). After 24 h, cells were incubated with increasing concentrations of each compound in duplicate for 24 h (dissolved in DMSO to give a final 0.1 % vol/vol concentration of vehicle). Each plate included non-treated cells as basal luciferase expression and tBHQ (10 µM) as positive control. TBHQ is a potent Nrf2 inducer used as control in the development of the AREc32 cells.^14 Transfected clones are selected using G418. AREc32 cells express constitutively the plasmid pGL-8xARE that implements 8 copies of the EpRE sequences followed by a luciferase reporter gene. Therefore, the induction of Nrf2 is proportional to the activation of EpRE sequences, expressing luciferase at the same extent as EpRE sequences are activated. Luciferase production is then assessed by a bioluminescence assay. The Luciferase Assay System (Promega E1500), was used according to the Promega protocol and luminescence was quantified in an Orion II microplate luminometer (Berthold, Germany). Relative Light Units (RLU) were recorded for the contents of each well. Fold induction of luciferase activity was calculated by dividing the RLU obtained for the tests wells for each treatment by the average RLU obtained for the basal conditions. Data are expressed as CD values, expressing the concentration required to double the basal luciferase activity, used to quantify the Nrf2 induction potency. CD values are calculated from dose-response curves generated from fold induction of control conditions vs. inducer concentration and fitted by non-linear regression and data interpolated to value the 2-fold induction concentration, using GraphPad Prism software (San Diego, CA, USA).

[2] = test system: primary rat glial cells; assay: Nitrite production in LPS-stimulated primary glial cultures (Griess); format: cell-based; conditions: Glial cell, 24 h pre-incubation, 18 h co-incubation with LPS 1 μg/mL, read-out: IC50 nitrite reduction
Description: (§1) Therefore, we envisaged the study of compounds 5a–t as potential anti-inflammatory agents. We used primary rat glial cells treated with lipopolysaccharide (LPS) to induce the production of nitrites and ROS as a model of glial activation. Nitrite production is directly proportional to the expression of the iNOS, that is over-expressed when LPS activates glial cells. ROS production is proportional to NOX activation after stimulation with LPS. Results are summarized in Table 2 as IC50s of nitrite production reduction and ROS production reduction. We have included sulforaphane as control in all experiments (see the Supporting Information).
Glial cells were pre-incubated with increasing concentrations of compounds for 24 hours. Then, treatments were removed and cells were incubated with LPS (1 μg/mL) alone or in presence of each compound at the desired concentration. Nitrite production was assessed 18 hours later by modified Griess assay. Briefly, samples (150 μl) were mixed with dapsone (75 μl) and NEDA (75 μl), and the mixture was incubated at room temperature for 5 min. Light absorption was measured at 550 nm in a microplate reader (Labtech, Offenburg, Germany). All data were normalized to basal nitrite production, considering this value as 100% of nitrite production. IC50 values were calculated from dose-response curves represented as percentage of nitrite production reduction induced by the different concentrations of each compound.
(§2) Mixed glial cultures were obtained from cerebral cortex of 2-5 day-old Sprague-Dawley rats. After removal of blood vessels and meninges, the forebrains were dissociated in DMEM/F12 medium. After mechanical dissociation, cells were plated (3x10^5 cells/ml) in DMEM/F12 medium with 20% fetal bovine serum (FBS) and 1 % penicillin/streptomycin (10,000 units), at 37 °C and in a 5 % CO2-supplemented air atmosphere. After 5 days, medium was substituted by DMEM/F12 medium with 10 % FBS. Cells were cultured for 7-10 days before treatment.
Primary rat glial cells were treated with compounds 5a-t at increasing concentrations (3, 10, 30 and 60 µM) during 24 h. Thereafter, treatments were removed and glial cells were co-incubated with increasing concentrations of each compound and LPS (1 µg/mL) for 18 h more. At the end of this period, supernatant was collected and the presence of nitrites was analyzed by the Griess method with modifications.^20 Each plate included non-treated cells as basal nitrite production, sulforaphane (SFN, 10 µM) as positive control. Briefly, samples (150 µl) were mixed with DAPSONE (75 µl) and NEDA (75 µl), and the mixture was incubated at room temperature for 5 min. Light absorption was measured at 550 nm in a microplate reader (Labtech, Offenburg, Germany). All data were normalized to basal nitrite production, considering this value as 100% of nitrite production. EC50 values were calculated from dose-response curves represented as percentage of nitrite production reduction induced by the different concentrations of each compound. Concentration response curves were fitted by non-linear regression analysis of individual concentration-response curves using GraphPad Prism software (San Diego, CA, USA). EC50 values are expressed as mean ± SEM of four different experiments in triplicate.

[3] = test system: primary rat glial cells; assay: ROS production in LPS-stimulated primary glial cultures (H2DCFDA); format: cell-based; conditions: Glial cell, 24 h pre-incubation, 18 h co-incubation with LPS, 3 h with fluorescent dye, read-out: IC50 ROS reduction
Description: as §1
Besides the increase in nitrite production, it is well known that LPS stimulation of microglia also induces the activation of NOX, which induces superoxide free radical production. In fact, this mechanism is synergistic with the expression of iNOS and the production of nitrites. In this respect, there is a body of evidence showing that NOX activation is a major contributor to ROS oxidative stress and neuronal death in AD[57][58]. […] In general, potency to reduce ROS production increased from ortho to para and meta as observed above.
(§3) Primary glial cells were cultured in bottom transparent 96-well black plates following standard protocol. Cells were pre-incubated with the corresponding compound at the selected concentrations, for 24 hours, and therafter, co-incubated with the corresponding compound and LPS (1 μM) during 18 h more. Then, treatments were removed and cells were loaded with the fluorescent probe 2′,7′-dichlorodihydrofluorescein diacetate (H2DCFDA) (10 μM) for 45 minutes in serum free glial culture medium. All experiments included cells treated with culture medium alone (basal). Cells were washed twice with culture medium and fluorescence intensity was recorded in a Fluostar Optima multiwall pate reader (BMG Labtech, Offenburg, Germany) at 485/520 nm as excitation and emission wavelengths respectively, each hour, during 3 hours period. Data were normalized with respect to basal conditions that were considered as 100%.
as §3, with “µM)” for “μM)”, “2',7'-dichlorodihydrofluorescein” for “2′,7′-dichlorodihydrofluorescein”
as §2

[4] = target: T1, GSK3β (Homo sapiens, UniProt P49841); conditions: cited from earlier work
T1 construct: purchased Promega V1991
T1 sequence (P49841 whole entry): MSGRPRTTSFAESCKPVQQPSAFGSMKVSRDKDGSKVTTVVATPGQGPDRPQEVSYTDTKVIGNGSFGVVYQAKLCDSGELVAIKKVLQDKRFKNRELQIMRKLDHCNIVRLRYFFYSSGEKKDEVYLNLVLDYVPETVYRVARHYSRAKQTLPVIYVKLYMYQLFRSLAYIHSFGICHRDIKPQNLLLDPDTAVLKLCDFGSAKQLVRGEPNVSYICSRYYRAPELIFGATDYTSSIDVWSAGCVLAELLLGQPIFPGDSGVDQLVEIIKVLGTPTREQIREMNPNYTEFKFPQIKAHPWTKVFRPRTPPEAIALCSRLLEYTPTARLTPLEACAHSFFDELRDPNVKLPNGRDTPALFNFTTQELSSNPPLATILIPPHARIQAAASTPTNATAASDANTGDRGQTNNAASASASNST

[5] = test system: HepG2 cells; conditions: human, 24 h
Protocol: (§4) Thus, it is relevant to study the potential neurotoxicity and hepatotoxicity of the novel dual GSK3β inhibitors-Nrf2 inducers 5a–t.
(§5) Viability was measured as MTT reduction in presence of increasing concentrations of derivatives. Values are expressed as LD50 calculated from dose-response curves of four different concentrations.
(§6) HepG2 cells were cultured according to supplier indications in EMEM supplemented with 10 % heat-inactivated FBS, 100 µg/mL streptomycin and 100 units/mL penicillin. Cells were maintained at 37 °C in humidified atmosphere of 95 % air and 5 % CO2. For experimental procedures, cells were cultured in 96-well plates at density of 1x10^5 cells/well. Treatments were performed in 1% FBS medium unless other concentration was specified. Cells were used from 4 up to 13 passages.
(§7) Cells were cultured in 48-well (SH-SY5Y, 1x10^5 cells per well) or 96-well plates (HepG2, 1x10^5 cells per well) for 24 h. […] Control cells were incubated with the same concentration of DMSO (0.1 % final concentration) without any drug.

[6] = test system: SH-SY5Y cells; conditions: human, 24 h
Protocol: as §5, §7

[7] = target: T1, GSK3β; assay: GSK3β inhibition, luminescence Kinase-Glo assay; format: biochemical; conditions: for Ki: calculated from IC50 by Cheng-Prusoff equation, Km ATP 2.345 µM, read-out: Ki (apparent equilibrium dissociation constant); for IC50: four concentrations 0.1, 1, 10, 30 μM, ATP 1 μM, 1 h
Protocol: GSK3β inhibitory activity was evaluated using the method developed by Baki[66], with modifications. Compounds were dissolved in assay buffer, containing 40 mM Tris (pH 7.5), 20 mM MgCl2, 0.1 mg/ml BSA (bovine serum albumin) and 50 μM dithiothreitol (DTT) at the desired concentrations. Firstly, 10 μl of enzyme (10 ng) and 10 μl of each compound were mixed for 30 min. Then, 20 μl of a mixture of ATP (1 μM) and GSK3β peptidic substrate were added to each well. The mixture was incubated for 60 min at 30 °C. Thereafter, the remaining ATP concentration was measured with the Kinase-Glo system following instructions from the supplier. Luminescence was measured in an Orion II microplate luminometer (Berthold, Germany) as relative light units (RLU). […] IC50 values were calculated by non-linear regression analysis of individual concentration-response curves using GraphPad Prism 5.0 software (San Diego, CA, USA).
The ability of the compounds to inhibit GSK3β was evaluated using the method developed by Baki^9 with some modifications. The tested compounds were dissolved in assay buffer, containing 40 mM Tris (pH 7.5), 20 mM MgCl2, 0.1 mg/ml BSA (bovine serum albumin) and 50 µM dithiothreitol (DTT), to achieve final reaction concentrations of 0.1, 1, 10 and 30 µM. […] The GSK3β inhibition assay was performed in white 96-well plates, in duplicates. Firstly, 10 µl of enzyme (10 ng) were added to each well, followed by 10 µl of the compounds at the desired concentration. After 30 minutes, 20 µl of a mixture of ATP and GSK3β peptidic substrate were added to each well, achieving a final concentration of 1 µM of ATP and 25 of µM peptidic substrate. The mixture was incubated at 30 °C for 60 minutes. Once the reaction was finished, the remaining ATP concentration was measured by adding 40 µl/well of Kinase-Glo reagent. The luminescence was measured in an Orion II microplate luminometer (Berthold, Germany) as relative light units (RLU). The luminescence recorded is proportional to the amount of ATP present in each well.
Apparent Ki for each compound were calculated from GSK3β Km value for ATP, applying the Cheng-Prusoff equation^10,11 in its simplified form: Ki = IC50/(1+([S]/Km)), in which S refers to the ATP concentration and Km is the Michaelis constant of the substrate for GSK3β.

[8] = target: T2, Keap1 Kelch domain (Homo sapiens, UniProt Q14145); assay: Differential scanning fluorimetry assay; format: binding; conditions: ligand concentration 10 µM
T2 construct: A solution of the Keap1 Kelch domain protein (5 µM)
T2 sequence (Q14145 321-609 limits assumed): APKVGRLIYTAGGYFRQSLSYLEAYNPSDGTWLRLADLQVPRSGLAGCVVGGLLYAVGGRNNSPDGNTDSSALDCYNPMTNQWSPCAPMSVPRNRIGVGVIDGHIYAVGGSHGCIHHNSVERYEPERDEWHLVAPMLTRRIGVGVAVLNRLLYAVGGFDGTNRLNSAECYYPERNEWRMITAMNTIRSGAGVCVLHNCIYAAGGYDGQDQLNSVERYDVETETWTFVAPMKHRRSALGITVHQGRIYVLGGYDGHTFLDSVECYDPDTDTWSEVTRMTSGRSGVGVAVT
Protocol: A solution of the Keap1 Kelch domain protein (5 µM) and detection dye SYPRO® orange (5X) in DPBS at pH 7.4 was added onto a qPCR plate containing the compound inhibitor (10 µM, 10% final DMSO concentration, 40 µL final volume). The plate was sealed using an optical foil seal and covered with aluminum foil to protect the dye from light. The plate was then transferred to a plate centrifuge and spun down briefly (200 G, 1 min, room temperature) to remove any bubbles and collect the solution at the bottom of the wells. Following a 30 min incubation at room temperature, the plate was placed into a 7500 Real time PCR machine and the fluorescence intensity at an excitation of 465 nm and emission of 580 nm was recorded during a temperature scan from 25 °C to 95 °C with a temperature ramping rate of 1 °C/min. All measurements were run in triplicate. Life Technologies software was used to set up the run on 7500 Software v.2.0.0 and the initial data processing was carried out on Protein thermal shift solution software. The raw data were exported to MS Excel and analysis was performed using a custom script provided by the Structural Genomics Consortium Oxford.^18 The temperature range over which the protein unfolding occurred was selected and the maximum and minimum (at temperatures below the maximum intensity) fluorescence intensities within this range were determined. The processed data were fitted to the Boltzmann equation by non-linear regression using the Origin Pro software.

[9] = test system: SH-SY5Y cells; assay: Neuroprotection against okadaic acid (tau hyperphosphorylation), MTT; format: cell-based; conditions: 1 μM, 24 h pre-incubation, 18 h co-incubation with OA 20 nM
[10] = target: T3, Nrf2-Keap1 protein-protein interaction (Homo sapiens, UniProt Q14145); assay: Fluorescence polarization assay of Nrf2-Keap1 interaction; format: binding; conditions: ligand concentration 10 µM; read-out: FP % Inhibition (± SEM)
T3 construct: a solution of the Keap1 Kelch domain (200 nM)
T3 sequence (Q14145 321-609 limits assumed): as above
Protocol: Data are presented the means ± SEM of two experiments performed in triplicate.
The FP assay was carried out as previously described.^16,17 Inhibitors (10 µM) were plated onto untreated Corning® black 96 well plates containing a solution of the Keap1 Kelch domain (200 nM) and the fluorescent peptide FITC-β-DEETGEF-OH (1 nM) in Dulbecco’s Phosphate Buffered Saline (DPBS) at pH 7.4 (11% final DMSO concentration, 100 µL final volume). Following a 30 min incubation under slow agitation and away from light at room temperature, the plates were transferred to a PHERAstar microplate reader (BMG Labtech, Ortenberg, Germany) and the fluorescence polarisation was recorded. All measurements were recorded in triplicate.

[11] = test system: SH-SY5Y cells; assay: Cytotoxicity in SH-SY5Y neuroblastoma cell line (MTT); conditions: 24 h
Protocol: as §5, §7

[12] = test system: HepG2 cells; assay: Hepatotoxicity in HepG2 cell line (MTT); conditions: 24 h
Protocol: as §4, §5, §6, §7

C[S+]([O-])CCCCN=C=S (stereo not shown) [Sulforaphane]
EC50 [1]: 0.54 ± 0.07 µM | IC50 [2]: 1.4 ± 0.3 µM | IC50 [3]: 2.84 ± 0.55 µM

N#Cc1c(N)nc2[nH]nc(N)c2c1-c1ccccc1 [Compound 2]
IC50 [4]: 1.5 µM

COc1ccc2[nH]cc(CCNC(C)=O)c2c1 [Melatonin]
HepG2 LD50 [5]: > 100 µM | SH-SY5Y LD50 [6]: > 100 µM

Cc1[nH]nc2c1C(c1ccccc1)C(C#N)=C(N)N2 (stereo not shown) [Compound 7, 6-amino-3-methyl-4-phenyl-4,7-dihydro-2H-pyrazolo[3,4-b]pyridine-5-carbonitrile]
Nrf2 induction (luciferase activity), result in words [1]: completely unable to induce Nrf2 | Ki [7]: 13.1 µM | IC50 [7]: 18.6 ± 0.4 µM

Cn1cc(C2=C(c3ccc(Cl)cc3Cl)C(=O)NC2=O)c2ccccc21 [SB216763, reference compound]
Nrf2 induction (luciferase activity), result in words [1]: inability of the GSK3β inhibitor SB216763 to induce Nrf2 transcriptional activity | EC50 [1]: > 30 µM | HepG2 LD50 [5]: > 100 µM | SH-SY5Y LD50 [6]: > 100 µM

Cc1[nH]nc2c1C(c1ccncc1)C(C#N)=C(N)O2 (stereo not shown) [Compound 5t, 6-Amino-3-methyl-4-(pyridin-4-yl)-2,4-dihydropyrano[2,3-c]pyrazole-5-carbonitrile]
ΔTm at 10 µM [8]: -0.53 ± 0.28 °C | Percentage of protection against okadaic acid toxicity [9]: over 50% | Ki [7]: 5.8 µM | IC50 [7]: 8.28 ± 0.7 µM | inhibition at 10 µM [10]: 1.24 ± 3.22% | SH-SY5Y LD50 [11]: > 100 µM | HepG2 LD50 [12]: > 100 µM | IC50 [2]: 28.8 ± 3.61 µM | IC50 [3]: 37.8 ± 1.17 µM
